Laboratory results as given in ChEMBL document CHEMBL3868604, “Optimization and bioevaluation of Cdc37-derived peptides: An insight into Hsp90-Cdc37 protein-protein interaction modulators” (Bioorg Med Chem, 2017).
The source made the active and inactive calls. No cut-off for these calls is given here.

Assays:
Heat shock protein HSP90 [1] = biological target: T1, Heat shock protein HSP90 (Homo sapiens, UniProt P07900+P08238); experiment: Inhibition of FITC-geldanamycin binding to N-terminal GST-tagged Hsp90 (unknown origin) expressed in Escherichia coli at 100 uM measured after 15 mins by fluorescence polarization assay relative to control
Heat shock protein HSP90 [2] = biological target: T1, Heat shock protein HSP90; experiment: Binding affinity to N-terminal GST-tagged Hsp90 (unknown origin) expressed in Escherichia coli by ITC method
Homo sapiens = species on record: Homo sapiens; experiment: Inhibition of N-terminal GST-tagged Hsp90 (unknown origin)-His-tagged Cdc37 middle domain (unknown origin) interaction expressed in Escherichia coli at 50 uM preincubated for 30 mins with GST-tagged Hsp90 (unknown origin) followed by addition of His-tagged Cdc37 middle domain (unknown origin) measured after 1 hr by GST-pulldown assay

Molecule | inhibition (Heat shock protein HSP90 [1]) [%] | Kd (Heat shock protein HSP90 [2]) [µM] | inhibition (Homo sapiens)
Ac-HFGMLRR-NH2 | < 10 | 5.99 | Active
Ac-KHFGMLRR-NH2 | < 10 | 7.41 | 
Ac-KHFGMLRRW-NH2 | < 10 | 10.07 | 
Ac-KHFGMLRRWDD-NH2 | < 10 | 6.9 | 

Second part, the molecule after the results:

inhibition (Heat shock protein HSP90 [1]) [%] | Kd (Heat shock protein HSP90 [2]) [µM] | inhibition (Homo sapiens) | Molecule
99.8 |  |  | CC(C)c1cc(C(=O)N2Cc3ccc(CN4CCN(C)CC4)cc3C2)c(O)cc1O
< 10 | 21 |  | Ac-KHFGMLRRWD-NH2
